From patent US9737525B2, “Small molecule activators of NRF2 pathway” (The General Hospital Corporation, priority 2013, dated 2017) come the findings set out here.

SMILES strings stand for the structures. “Also recorded” adds a separate entry of the source. Some results are limits rather than exact numbers.

Experiment [1] has as its target human recombinant SIRT2 deacetylase (Homo sapiens (Human), UniProt Q8IXJ6). Put plainly: Sirtuin biochemical deacetylation assay, SIRT2. To be noted: for SIRT2 inhibition: dose-response. The protocol:
Modulation of sirtuin activity by compounds was assessed using the Flour de Lys fluorescent biochemical assay in a 96-well format as described (Outeiro et al., 2007). The deacetylation reaction was performed at 37° C. for an hour in the presence of human recombinant enzymes: SIRT1 (BioMol-SE-239) 1 unit/per reaction, SIRT2 (BioMol-SE-251) 5 units/per reaction, or SIRT3 (BioMol-SE-270) 5 units/per reaction, compound of interest, standard buffer, 50 μM substrate, and 500 μM NAD^+ according to the manufacturer's protocol. […]

The next experiment relates to NQO1. As to the kind of experiment: Quantitative NQO1 inducer bioassay in Hepa1c1c7 cells. The settings on record: for Effect of GSH pre-incubation on NQO1 inducer potency: 1 mM GSH at 37° C. for 30 min before cell treatment; for CD value (Concentration which Doubles the specific activity of NQO1): Hepa1c1c7 cells; for CD value (Concentration which Doubles the specific activity of NQO1) / EC (2-fold NQO1 activity): 48 hr exposure; for EC (2-fold NQO1 activity): Mus musculus, Hepa-1c1c7, Table 3, Concentration which Doubles the specific activity of NQO1, read-out: NQD1 CD. It is filed as cell-based, murine.

For experiment [2], the system named is Nrf2-responsive proteins NQO1 and GCLM. As to the kind of experiment: NRF2 responses in wild type and mutant SOD1 (G93A) primary astroglia. The class given is cell-based. To be noted: wild type and mutant SOD1 (G93A) mouse primary astroglia. The source says: Primary glia was derived from wild type and mutant SOD1 (G93A) mice and treated with MIND4 and MIND4-17 at indicated doses. The expression NRF2 responsive NQO1 and GCLM proteins were detected by immunochemistry. […] Importantly, compounds had no effects on human mutant SOD1 transgene, expressing in mice from human promoter.

The test system of a further experiment is NRF2/KEAP1 in MEFs. Put plainly: NQO1 and NRF2 levels in mouse embryonic fibroblasts (MEFs), western blot. It is filed as cell-based. To be noted: wild-type MEFs; for Accumulation of total NRF2 protein: 5 hr exposure. The protocol:
Mouse embryonic fibroblasts (MEFs) from wild-type (WT), NRF2-knockout (NRF2-KO) or KEAP1-knockout (KEAP1-KO) mice, were cultured in plastic dishes (Invitrogen) coated for 30 min with 0.1% (w/v) gelatin before use. The cell culture medium was Iscoves Modified Dulbecco's Medium (with L-glutamine) supplemented with human recombinant epidermal growth factor (10 ng/mL), 1× insulin/transferrin/selenium, and 10% (v/v) heat-inactivated FBS, all from Invitrogen. Cells were maintained at 5% CO2 in air at 37° C. For experiments, cells (250,000 per well) were grown for 24 hr on 6-well plates, and then treated with solvent control (0.1% DMSO, v/v) or compounds for either 5 hr or 24 hr. For western blot analysis, cells were washed twice with ice-cold phosphate buffered saline (PBS) and lysed in 150 μl of RIPA buffer (50 mM Tris-Cl pH 7.5, 150 mM NaCl, 0.5% sodium deoxycholate, 1% NP-40, 0.1% SDS and 1 mM EDTA), containing 1 protease inhibitor cocktail tablet (Roche) per 10 ml of buffer. Cell debris were removed by centrifugation at 16,300×g for […] at 4° C., and protein concentrations were determined by the BCA assay (Thermo). Proteins were resolved by SDS/PAGE, transferred to immobilon-P membranes, and probed with specific antibodies against NQO1 (1:1000) or NRF2 (1:1000). Equal loading was confirmed by probing the blots with an antibody against β-actin (mouse monoclonal, 1:10000), from Sigma, Dorset, United Kingdom.
For nuclear-cytoplasmic separation, WT MEFs (500,000 per dish) were grown for 24 hr on 6-cm plates, and then treated with solvent control (0.1% DMSO, v/v) or 0.5 μM MIND4-17. At the end of each treatment time, cells were placed on ice and washed twice with ice-cold PBS and subsequently lysed in buffer A [10 mM KCl, 5 mM MgCl2, 50 mM Tris-HCl (pH 7.5), 0.5% Nonidet P-40 (Roche), 1 mM dithioretitol (DTT) (Sigma), containing one protease inhibitor tablet and one phosphatase inhibitor tablet (both from Roche) per each 10 ml of buffer]. The lysates were subjected to centrifugation (Spectrafuge 24D, Labnet) at 1,000×g for 5 min at 4° C. The supernatant (cytoplasmic fraction) was transferred to a fresh Eppendorf tube. The pellet (nuclear fraction) was washed three times in buffer A before being dissolved in buffer B [2% SDS, 150 mM NaCl, 65 mM Tris-HCl (pH 8.0)] and sonicated for 30 sec. Finally, the lysates were subjected to western blot analysis. The blots were probed with antibodies against GAPDH (rabbit polyclonal, 1:5000) and Lamin A/C (rabbit polyclonal, 1:1000, Gene Tex, Calif., United States of America) to confirm fraction purity and equal protein loading.
(Immunoblotting shows a protein as a band on a membrane.)

Experiment [3] concerns 5×-ARE promoter-luciferase reporter. Put plainly: 5×-ARE-luciferase reporter assay in primary corticostriatal co-cultures. The class given is cell-based, mouse. To be noted: 5 μM, 4 hr or 16 hr. Here is the method:
Primary corticostriatal neuronal co-cultures were prepared from E18 mouse brains as previously described [Kaltenbach, 2010]. Mice were maintained in accordance with Duke University Medical Center Institutional Animal Care and Use Committee guidelines. For 5×-ARE-luciferase reporter assays, neurons were transfected following their isolation (Nucleofector, Lonza) with 2.5 μg Cignal Antioxidant Response Reporter dual luciferase plasmids (Qiagen/SABiosciences) and plated onto pre-established glial beds in 96 well plates. After 4 days in culture at 37° C. under 5% CO2, co-cultures were treated with the indicated compounds for 4 hr or 16 hr then harvested and read for luminescence from firefly and Renilla luciferases according to the Dual Glo luciferase protocol (Promega) using a SpectraMaxL luminometer (Molecular Devices). Each sample was measured in technical triplicate. For quantitative RT-PCR (qPCR) of ARE target genes, corticostriatal co-cultures were prepared as described above and, after 4 days in culture, treated for 6 hr with the indicated compounds followed by RNA harvesting according to the Absolutely RNA miniprep protocol (Agilent Technologies). Purified RNA was converted to cDNA using random hexamers and SuperScript First-Strand RT-PCR Synthesis (Invitrogen). […] Ct values were determined using primer sets against ARE genes Hmox1, Gclc and Nqo1]. […]
On the technique in general: Reporter assays use an easily measured gene product as a stand-in for the process of interest.

human recombinant SIRT2 deacetylase, sequence (Q8IXJ6 whole entry): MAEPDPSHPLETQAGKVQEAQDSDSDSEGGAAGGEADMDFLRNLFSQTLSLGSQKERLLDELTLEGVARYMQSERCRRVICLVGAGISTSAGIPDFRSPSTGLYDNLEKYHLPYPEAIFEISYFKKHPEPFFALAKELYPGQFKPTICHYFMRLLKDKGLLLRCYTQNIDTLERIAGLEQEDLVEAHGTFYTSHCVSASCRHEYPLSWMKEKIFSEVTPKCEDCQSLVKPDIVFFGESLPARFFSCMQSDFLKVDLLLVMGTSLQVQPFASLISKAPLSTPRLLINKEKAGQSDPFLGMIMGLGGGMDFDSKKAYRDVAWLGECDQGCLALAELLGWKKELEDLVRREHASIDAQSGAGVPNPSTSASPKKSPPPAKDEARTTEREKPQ

The term IC50 denotes the midpoint of a concentration-inhibition curve. `O=[N+]([O-])c1ccc(Sc2nnc(COc3ccccc3)n2-c2ccccc2)c2ncccc12` [MIND4, 5-nitro-8-{[5-(phenoxymethyl)-4-phenyl-4H-1,2,4-triazol-3-yl]thio}quinoline]: the IC50 in experiment [1] (Table 1) is 1.7 µM. In addition, the IC50 in experiment [1] (Table 3) was 3.5 µM. The SIRT2 inhibition result in experiment [1] was “dose-dependent and selective inhibition of human recombinant SIRT2 deacetylase”. Moreover, in the experiment on NQO1, the “Effect of GSH pre-incubation on NQO1 inducer potency” value was “much less pronounced effect”, the “CD value (Concentration which Doubles the specific activity of NQO1)” value stood at 1.3 µM and the EC (2-fold NQO1 activity) was 1.3 µM. Besides, the “Induction of Nrf2-responsive proteins NQO1 and GCLM” value in experiment [2] is recorded as “dose-dependent induction”. Also, in the experiment on NRF2/KEAP1 in MEFs, the “Accumulation of total NRF2 protein” value is “to much lesser extent”. In addition, the “Transcriptional rate of 5×-ARE promoter-luciferase reporter” value in experiment [3] is on record as “able to induce increases in the transcriptional rate”.
Consider `O=[N+]([O-])c1ccc(Sc2nnc(COc3ccccc3)n2-c2ccccc2)nc1` [MIND4-17], for which the IC50 in experiment [1] (Table 3) is above 50 µM. Moreover, in experiment [1], the SIRT2 inhibition entry is on record as “no inhibitory activity; also recorded: no detectable SIRT2 inhibition activity”. In addition, in the experiment with NQO1, the “Effect of GSH pre-incubation on NQO1 inducer potency” value is recorded as “drastically reduced the potency”, the “CD value (Concentration which Doubles the specific activity of NQO1)” value turned out to be 0.15 µM and the EC (2-fold NQO1 activity) came out at 0.15 µM. Also, the “Induction of Nrf2-responsive proteins NQO1 and GCLM” value in experiment [2] was “dose-dependent induction”. The “NRF2 levels in nuclear and cytoplasmic fractions” value in the experiment on NRF2/KEAP1 in MEFs (0.5 μM, from 30 min, elevated for at least 5 hr) is recorded as “increase of NRF2 levels was detected”. In addition, in the experiment with NRF2/KEAP1 in MEFs, the “Accumulation of total NRF2 protein” value is on record as “readily detectable”. Also, in experiment [3], the “Transcriptional rate of 5×-ARE promoter-luciferase reporter” value is “able to induce increases in the transcriptional rate”.
